Reference: PubChem BioAssay AID248 (DTP/NCI, 2004)
Inconclusive results and toxic doses are left out. Cut-off read from the data, not from the text of the source: active = T/C of 150% or more; inactive = T/C below 125%.

Tested on: L1210 leukemia ip in BDF1 mice, survival T/C
Test: NCI In Vivo Anticancer Drug Screen. Data for tumor model L1210 Leukemia (intraperitoneal) in B6D2F1 (BDF1) mice
Conditions: endpoint: mean survival time, higher = longer survival
Method in brief: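 Value reflects the ratio of survival in compound-treated mice to survival in vehicle-treated controls, with both groups carrying the same transplanted tumor.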

[1] = dose: 100.0 mg/kg/injection, schedule: Q01DX001 (ip), vehicle: saline
[2] = dose: 200.0 mg/kg/injection, schedule: Q01DX001 (ip), vehicle: saline
[3] = dose: 100.0 mg/kg/injection, schedule: Q01DX009 (ip), vehicle: Klucel (hydroxypropylcellulose) (HPC)
[4] = dose: 100.0 mg/kg/injection, schedule: Q04DX003 (ip), vehicle: Klucel (hydroxypropylcellulose) (HPC)
[5] = dose: 200.0 mg/kg/injection, schedule: Q01DX009 (ip), vehicle: Klucel (hydroxypropylcellulose) (HPC)
[6] = dose: 200.0 mg/kg/injection, schedule: Q04DX003 (ip), vehicle: Klucel (hydroxypropylcellulose) (HPC)
[7] = dose: 400.0 mg/kg/injection, schedule: Q01DX009 (ip), vehicle: Klucel (hydroxypropylcellulose) (HPC)
[8] = dose: 400.0 mg/kg/injection, schedule: Q04DX003 (ip), vehicle: Klucel (hydroxypropylcellulose) (HPC)
[9] = dose: 100.0 mg/kg/injection, schedule: Q01DX009 (ip), vehicle: saline with Tween-80
[10] = dose: 100.0 mg/kg/injection, schedule: Q04DX002 (ip), vehicle: Klucel (hydroxypropylcellulose) (HPC)
[11] = dose: 200.0 mg/kg/injection, schedule: Q04DX002 (ip), vehicle: Klucel (hydroxypropylcellulose) (HPC)
[12] = dose: 400.0 mg/kg/injection, schedule: Q04DX002 (ip), vehicle: Klucel (hydroxypropylcellulose) (HPC)
[13] = dose: 50.0 mg/kg/injection, schedule: Q01DX001 (ip), vehicle: saline
[14] = dose: 150.0 mg/kg/injection, schedule: Q01DX009 (ip), vehicle: saline with Tween-80
[15] = dose: 100.0 mg/kg/injection, schedule: Q04DX003 (ip), vehicle: saline
[16] = dose: 100.0 mg/kg/injection, schedule: Q04DX003 (ip), vehicle: saline with Tween-80
[17] = dose: 200.0 mg/kg/injection, schedule: Q04DX003 (ip), vehicle: saline with Tween-80
[18] = dose: 400.0 mg/kg/injection, schedule: Q04DX003 (ip), vehicle: saline with Tween-80

Measured: T/C

CC(=O)Nc1ccc(S(=O)(=O)O)c(OC(C)=O)c1
inactive: [1] 100 % of control | [2] 93 % of control | dose: 400.0 mg/kg/injection, schedule: Q01DX001 (ip), vehicle: saline 114 % of control

CN(C)Cc1ccccc1COC(=O)c1ccc(Cl)cc1
inactive: dose: 75.0 mg/kg/injection, schedule: Q04DX002 (ip), vehicle: saline 102 % of control | dose: 150.0 mg/kg/injection, schedule: Q04DX002 (ip), vehicle: saline 94 % of control | dose: 300.0 mg/kg/injection, schedule: Q04DX002 (ip), vehicle: saline 96 % of control

Nc1ccc(S(=O)(=O)Nc2cccc3ccccc23)cc1
inactive: [3] 100 % of control | [4] 90 % of control | [5] 99 % of control | [6] 92 % of control | [7] 101 % of control | [8] 95 % of control

CC1(c2ccc(O)cc2)CCC(C(C)(C)c2ccc(O)cc2)CC1 (centres undefined)
inactive: [9] 107 % of control | dose: 200.0 mg/kg/injection, schedule: Q01DX009 (ip), vehicle: saline with Tween-80 107 % of control

CC(C)C(=O)Oc1ccc(-c2ccccc2)cc1
inactive: [10] 93 % of control | [11] 100 % of control | [12] 100 % of control

CC(C)=CCNc1ncnc2c(C3OC(CO)C(O)C3O)[nH]nc12 (centres undefined)
inactive: dose: 100.0 mg/kg/injection, schedule: Q01DX005 (ip), vehicle: saline 95 % of control | dose: 200.0 mg/kg/injection, schedule: Q01DX005 (ip), vehicle: saline 95 % of control

C/C=C1\CCCCN(Cc2ccccc2)CCC1
inactive: dose: 75.0 mg/kg/injection, schedule: Q01DX001 (ip), vehicle: saline 104 % of control | dose: 150.0 mg/kg/injection, schedule: Q01DX001 (ip), vehicle: saline 98 % of control

O=C1OC(=O)c2c(O)cccc21
inactive: dose: 12.5 mg/kg/injection, schedule: Q01DX001 (ip), vehicle: saline 101 % of control | dose: 25.0 mg/kg/injection, schedule: Q01DX001 (ip), vehicle: saline 105 % of control | dose: 25.0 mg/kg/injection, schedule: Q01DX009 (ip), vehicle: saline with Tween-80 98 % of control | [13] 103 % of control | dose: 50.0 mg/kg/injection, schedule: Q01DX009 (ip), vehicle: saline with Tween-80 104 % of control | [9] 98 % of control | [14] 118 % of control

CN1CC=C(/C=C/c2cccc3ccccc23)CC1
inactive: dose: 25.0 mg/kg/injection, schedule: Q01DX009 (ip), vehicle: saline 100 % of control | dose: 50.0 mg/kg/injection, schedule: Q01DX009 (ip), vehicle: saline 103 % of control | dose: 100.0 mg/kg/injection, schedule: Q01DX009 (ip), vehicle: saline 114 % of control | [15] 103 % of control

COc1cc([N+](=O)[O-])c2nc(C(=O)O)ccc2c1
inactive: [13] 116 % of control | [1] 106 % of control | [2] 112 % of control

CC(C)OC(=O)Oc1cccc2c1C(=O)c1ccccc1C2=O
inactive: [3] 91 % of control | [4] 97 % of control | [5] 91 % of control | [6] 93 % of control | [8] 104 % of control

CCCC1(CCC)NC(=O)N(CC(N)=O)C1=O
inactive: [16] 100 % of control | [17] 102 % of control | [18] 98 % of control

COc1cc(C)c(C)cc1C(C)C(C)C(=O)O (centres undefined)
inactive: [4] 97 % of control | [6] 98 % of control | [8] 98 % of control

CCNC(=O)NCc1ccc(Cl)c(Cl)c1
inactive: [10] 105 % of control | [11] 99 % of control

CNC(=O)NC1C(CO)OC2OC(C)(C)OC21 (centres undefined)
inactive: dose: 100.0 mg/kg/injection, schedule: Q04DX002 (ip), vehicle: saline 100 % of control | dose: 200.0 mg/kg/injection, schedule: Q04DX002 (ip), vehicle: saline 97 % of control | dose: 400.0 mg/kg/injection, schedule: Q04DX002 (ip), vehicle: saline 94 % of control

O=C(O)C1OC(Oc2ccc3oc4ccccc4c(=O)c3c2)C(O)C(O)C1O (centres undefined)
inactive: [3] 91 % of control | [5] 97 % of control | [7] 111 % of control

O=C(Oc1ccccc1)c1ccc2ccccc2c1O
inactive: [10] 100 % of control | [11] 91 % of control | [12] 100 % of control

S=C(c1ccco1)N1CCOCC1
inactive: dose: 75.0 mg/kg/injection, schedule: Q01DX001 (ip), vehicle: carboxymethylcellulose (CMC) 97 % of control | dose: 75.0 mg/kg/injection, schedule: Q01DX009 (ip), vehicle: saline with Tween-80 102 % of control | dose: 75.0 mg/kg/injection, schedule: Q04DX003 (ip), vehicle: saline with Tween-80 104 % of control | dose: 150.0 mg/kg/injection, schedule: Q01DX001 (ip), vehicle: carboxymethylcellulose (CMC) 104 % of control | [14] 100 % of control | dose: 150.0 mg/kg/injection, schedule: Q04DX003 (ip), vehicle: saline with Tween-80 97 % of control | dose: 300.0 mg/kg/injection, schedule: Q01DX001 (ip), vehicle: carboxymethylcellulose (CMC) 98 % of control | dose: 300.0 mg/kg/injection, schedule: Q04DX003 (ip), vehicle: saline with Tween-80 89 % of control

O=C(CNC(=O)c1ccc(Cl)c(Cl)c1)N/N=C/c1ccc(Cl)cc1
inactive: dose: 50.0 mg/kg/injection, schedule: Q01DX009 (ip), vehicle: Klucel (hydroxypropylcellulose) (HPC) 93 % of control | [3] 88 % of control | [5] 98 % of control

C=C(C)C(=O)Nc1c(C)cccc1C
inactive: [4] 105 % of control | [6] 94 % of control

Cc1cccc(Cl)c1NC(N)=O
inactive: [3] 102 % of control | [4] 103 % of control | [5] 102 % of control | [6] 94 % of control | [7] 97 % of control | [8] 95 % of control

CCOC(=O)C1=C(C)NC(=O)NC1c1ccc(N=Cc2cc(Br)ccc2O)cc1 (centres undefined)
inactive: [16] 97 % of control | [17] 97 % of control | [18] 89 % of control

COc1ccc2c3c1OC1C=CC(O)C4C(C2)N(C)CCC314 (centres undefined)
inactive: [1] 98 % of control | [2] 89 % of control

O=C1CCc2cc3c(cc21)OCO3
inactive: [15] 103 % of control | dose: 200.0 mg/kg/injection, schedule: Q04DX003 (ip), vehicle: saline 96 % of control | dose: 400.0 mg/kg/injection, schedule: Q04DX003 (ip), vehicle: saline 102 % of control

CC(=O)Nc1ccc(C)c2ccccc12
inactive: dose: 50.0 mg/kg/injection, schedule: Q04DX003 (ip), vehicle: saline with Tween-80 116 % of control | [16] 100 % of control | [17] 100 % of control | [18] 96 % of control

O=NN(CCCl)C(=O)NN1CCCCCC1
inactive: dose: 15.0 mg/kg/injection, schedule: Q01DX001 (ip), vehicle: carboxymethylcellulose (CMC) 101 % of control | dose: 30.0 mg/kg/injection, schedule: Q01DX001 (ip), vehicle: carboxymethylcellulose (CMC) 101 % of control

O=C(O)C(CCCN1C(=O)c2ccccc2C1=O)N1C(=O)c2ccccc2C1=O (centres undefined)
inactive: [3] 93 % of control | [5] 94 % of control | [7] 98 % of control

O=C(O)c1ccc(F)c(F)c1
inactive: dose: 100.0 mg/kg/injection, schedule: Q04DX002 (ip), vehicle: other 110 % of control | dose: 200.0 mg/kg/injection, schedule: Q04DX002 (ip), vehicle: other 115 % of control | dose: 400.0 mg/kg/injection, schedule: Q04DX002 (ip), vehicle: other 107 % of control

O=[N+]([O-])c1ccc(N=Nc2ccc3c(c2)-c2ccccc2C3=P(c2ccccc2)(c2ccccc2)c2ccccc2)cc1
inactive: dose: 100.0 mg/kg/injection, schedule: Q01DX001 (ip), vehicle: carboxymethylcellulose (CMC) 108 % of control | dose: 200.0 mg/kg/injection, schedule: Q01DX001 (ip), vehicle: carboxymethylcellulose (CMC) 98 % of control | dose: 400.0 mg/kg/injection, schedule: Q01DX001 (ip), vehicle: carboxymethylcellulose (CMC) 93 % of control

CN(C)c1ccc(C=NCCCO)cc1
inactive: dose: 100.0 mg/kg/injection, schedule: Q04DX002 (ip), vehicle: saline with Tween-80 92 % of control | dose: 200.0 mg/kg/injection, schedule: Q04DX002 (ip), vehicle: saline with Tween-80 103 % of control

O=C(NCc1ccc(Cl)cc1)NC1CCCCC1
inactive: [10] 100 % of control | [11] 100 % of control | [12] 106 % of control
